Assays:
Candida albicans = details: both in vitro and in vivo; cited from earlier work
[1] = cited from earlier work
[2] = system: experimental allergic encephalomyelitis model; details: model for multiple sclerosis; cited from earlier work
adjuvant arthritis model = details: model for rheumatoid arthritis; cited from earlier work
IGE-like antibodies = details: in vivo; cited from earlier work
transplant rejection = details: in vivo; cited from earlier work
[3] = system: cells from the thymus of normal BALB/c mice; experiment: comitogen-induced thymocyte proliferation procedure (LAF); format: cell-based; details: PHA and IL-1, 72 hours, tritiated thymidine last six hours
Description: Immunosuppresive activity of the compounds of the present invention was evaluated in an in vitro standard pharmacological test procedure to measure lymphocyte proliferation (LAF).
Briefly, cells from the thymus of normal BALB/c mice were cultured for 72 hours with PHA and IL-1 and pulsed with tritiated thymidine during the last six hours. […] Cells are harvested and incorporated; radioactivity is determined. Inhibition of lymphoproliferation is assessed in percent change in counts per minute from non-drug treated controls. The results are expressed by the following ratio: [formula]

| SMILES | R/*A at 10 nM (relative potency of analogs/rapamycin) [3] | R/*A at 100 nM (relative potency of analogs/rapamycin) [3] | other results |
| --- | --- | --- | --- |
| CO[C@H]1C[C@@H]2CC[C@@H](C)[C@@](O)(O2)C(=O)C(=O)N2CCCC[C@H]2C(=O)O[C@H]([C@H](C)C[C@@H]2CC[C@@H](O)[C@H](OC)C2)CC(=O)[C@H](C)/C=C(\C)[C@@H](O)[C@@H](OC)C(=O)[C@H](C)C[C@H](C)/C=C/C=C/C=C/1C [Rapamycin] | – | – | antifungal activity (Candida albicans): antifungal activity; antitumor activity ([1]; alone): antitumor activity; antitumor activity in combination ([1]; in combination with picibanil): antitumor activity; effect in the experimental allergic encephalomyelitis model [2]: effective; effect in the adjuvant arthritis model (adjuvant arthritis model): effective; inhibition of the formation of IGE-like antibodies (IGE-like antibodies): effectively inhibited; inhibiting transplant rejection (transplant rejection): effective in inhibiting transplant rejection |
| CO[C@H]1C[C@@H]2CC[C@@H](C)[C@@](O)(O2)C(=O)C(=O)N2CCCC[C@H]2C(=O)O[C@H]([C@H](C)C[C@@H]2CC[C@@H](OC(=O)CCCCCCCC(=O)O[C@@H]3CC[C@@H](C[C@@H](C)[C@@H]4CC(=O)[C@H](C)/C=C(\C)[C@@H](O)[C@@H](OC)C(=O)[C@H](C)C[C@H](C)/C=C/C=C/C=C(\C)[C@@H](OC)C[C@@H]5CC[C@@H](C)[C@@](O)(O5)C(=O)C(=O)N5CCCC[C@H]5C(=O)O4)C[C@H]3OC)[C@H](OC)C2)CC(=O)[C@H](C)/C=C(\C)[C@@H](O)[C@@H](OC)C(=O)[C@H](C)C[C@H](C)/C=C/C=C/C=C/1C [Example 4, Rapamycin-42,42'-diacid with nonanedioic acid] | 1.10 | 1.0 | – |
| CO[C@H]1C[C@@H]2CC[C@@H](C)[C@@](O)(O2)C(=O)C(=O)N2CCCC[C@H]2C(=O)O[C@H]([C@H](C)C[C@@H]2CC[C@@H](OC(=O)CCCCC(=O)O[C@@H]3CC[C@@H](C[C@@H](C)[C@@H]4CC(=O)[C@H](C)/C=C(\C)[C@@H](O)[C@@H](OC)C(=O)[C@H](C)C[C@H](C)/C=C/C=C/C=C(\C)[C@@H](OC)C[C@@H]5CC[C@@H](C)[C@@](O)(O5)C(=O)C(=O)N5CCCC[C@H]5C(=O)O4)C[C@H]3OC)[C@H](OC)C2)CC(=O)[C@H](C)/C=C(\C)[C@@H](O)[C@@H](OC)C(=O)[C@H](C)C[C@H](C)/C=C/C=C/C=C/1C [Example 1, Rapamycin-42,42'-diester with hexanedioic acid] | 0.95 | 1.0 | – |
| CO[C@H]1C[C@@H]2CC[C@@H](C)[C@@](O)(O2)C(=O)C(=O)N2CCCC[C@H]2C(=O)O[C@H]([C@H](C)C[C@@H]2CC[C@@H](OC(=O)CCCCCCC(=O)O[C@@H]3CC[C@@H](C[C@@H](C)[C@@H]4CC(=O)[C@H](C)/C=C(\C)[C@@H](O)[C@@H](OC)C(=O)[C@H](C)C[C@H](C)/C=C/C=C/C=C(\C)[C@@H](OC)C[C@@H]5CC[C@@H](C)[C@@](O)(O5)C(=O)C(=O)N5CCCC[C@H]5C(=O)O4)C[C@H]3OC)[C@H](OC)C2)CC(=O)[C@H](C)/C=C(\C)[C@@H](O)[C@@H](OC)C(=O)[C@H](C)C[C@H](C)/C=C/C=C/C=C/1C [Example 3, Rapamycin-42,42'-diester with octanedioic acid] | 0.59 | 1.0 | – |
| CO[C@H]1C[C@@H]2CC[C@@H](C)[C@@](O)(O2)C(=O)C(=O)N2CCCC[C@H]2C(=O)O[C@H]([C@H](C)C[C@@H]2CC[C@@H](OC(=O)CCCCCC(=O)O[C@@H]3CC[C@@H](C[C@@H](C)[C@@H]4CC(=O)[C@H](C)/C=C(\C)[C@@H](O)[C@@H](OC)C(=O)[C@H](C)C[C@H](C)/C=C/C=C/C=C(\C)[C@@H](OC)C[C@@H]5CC[C@@H](C)[C@@](O)(O5)C(=O)C(=O)N5CCCC[C@H]5C(=O)O4)C[C@H]3OC)[C@H](OC)C2)CC(=O)[C@H](C)/C=C(\C)[C@@H](O)[C@@H](OC)C(=O)[C@H](C)C[C@H](C)/C=C/C=C/C=C/1C [Example 2, Rapamycin-42,42'-diester with heptanedioic acid] | 0.28 | 0.96 | – |

From US5120727A, “Rapamycin dimers” (American Home Products Corporation, priority 1991, dated 1992)
